Assay results as given in publication PMC9184688, “α-Glucosidase inhibitive diarylheptanoids from Ottelia acuminata var. acuminata, a traditional vegetable of Bai Nationality in Yunnan” (Natural Products and Bioprospecting, 2022).
Marks after values point to notes of the source that are not given here.

Tests used:
PTP1B = molecular target: T1, PTP1B (Homo sapiens, UniProt P18031); assay: PTP1B inhibitory assay (phosphate-based detection reagent, absorbance at 620 nm); type: biochemical; conditions: means ± SD (n = 3)
T1 construct: purchased Sigma Chemical (Merck KGaA, Darmstadt, Germany)
T1 sequence (P18031 1-322 limits assumed): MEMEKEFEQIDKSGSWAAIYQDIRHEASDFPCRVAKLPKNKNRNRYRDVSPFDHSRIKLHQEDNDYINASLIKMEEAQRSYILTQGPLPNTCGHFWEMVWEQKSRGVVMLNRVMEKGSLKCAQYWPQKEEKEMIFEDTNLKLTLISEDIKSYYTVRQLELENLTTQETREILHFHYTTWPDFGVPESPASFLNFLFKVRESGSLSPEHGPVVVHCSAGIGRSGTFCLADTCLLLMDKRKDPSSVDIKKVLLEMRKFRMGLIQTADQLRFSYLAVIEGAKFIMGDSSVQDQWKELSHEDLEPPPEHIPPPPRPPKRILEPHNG
Protocol: IR spectra were measured on a Bruker FT-IR Tensor-27 infrared spectrophotometer with KBr disks. Optical rotations were recorded on a JASCO P-1020 polarimeter. UV spectra were obtained with a Shimadzu UV-2401PC spectrometer. 1D and 2D NMR spectra were performed on a Bruker DRX-600 spectrometer using TMS as an internal standard. The chemical shifts (δ) were expressed in ppm with reference to the solvent signals. HREIMS and HRESIMS analysis were obtained from Waters Xevo TQS and Agilent G6230 TOF mass spectrometers, respectively. […] Semi-preparative HPLC was performed on a Waters 1525 HPLC with a ZORBAX SB-C18 (9.4 × 250 mm) column. Silica gel (100–200 and 200–300 mesh, Qingdao Marine Chemical Co., Ltd., People’s Republic of China), and MCI gel (75–150 μm, Mitsubishi Chemical Corporation, Tokyo, Japan) were used for column chromatography. Fractions were monitored by TLC (GF 254, Qingdao Marine Chemical Co., Ltd.), and spots were visualized by heating silica gel plates immersed in 10% H2SO4 in ethanol. Methanol (HPLC grade) and acetonitrile (HPLC grade) was purchased from CINC High Purity Solvents Co., Ltd (Shanghai, China).
The α-glucosidase and PTB1B inhibitory activity were conducted according to the previous reports with slight modifications. […] While in the PTB1B inhibitory assay, after addition of phosphate-based detection reagent then incubation at 30 °C for 20 min, and absorbance was measured at 620 nm and suramin was used as positive control. The inhibition percentage was calculated as follows: inhibition rate (%) = (E – S)/E × 100% (E is the OD of the control and S is the OD of the sample) and IC50 (50% concentration of inhibition) was calculated by Reed and Muench method.

α-glucosidase = α-glucosidase (Saccharomyces cerevisiae, UniProt P53341); assay: α-glucosidase inhibitory assay (PNPG, absorbance at 405 nm); type: biochemical; conditions: at a concentration of 50 μM; means ± SD (n = 3); read-out: α-Glucosidase Inhibition ratio (%)
Protocol: The α-glucosidase and PTB1B inhibitory activity were conducted according to the previous reports with slight modifications [49, 50]. […] The inhibition percentage was calculated as follows: inhibition rate (%) = (E – S)/E × 100% (E is the OD of the control and S is the OD of the sample) and IC50 (50% concentration of inhibition) was calculated by Reed and Muench method.

[1] = test concentration of the compounds not given

Chain of α-glucosidase (P53341 whole entry): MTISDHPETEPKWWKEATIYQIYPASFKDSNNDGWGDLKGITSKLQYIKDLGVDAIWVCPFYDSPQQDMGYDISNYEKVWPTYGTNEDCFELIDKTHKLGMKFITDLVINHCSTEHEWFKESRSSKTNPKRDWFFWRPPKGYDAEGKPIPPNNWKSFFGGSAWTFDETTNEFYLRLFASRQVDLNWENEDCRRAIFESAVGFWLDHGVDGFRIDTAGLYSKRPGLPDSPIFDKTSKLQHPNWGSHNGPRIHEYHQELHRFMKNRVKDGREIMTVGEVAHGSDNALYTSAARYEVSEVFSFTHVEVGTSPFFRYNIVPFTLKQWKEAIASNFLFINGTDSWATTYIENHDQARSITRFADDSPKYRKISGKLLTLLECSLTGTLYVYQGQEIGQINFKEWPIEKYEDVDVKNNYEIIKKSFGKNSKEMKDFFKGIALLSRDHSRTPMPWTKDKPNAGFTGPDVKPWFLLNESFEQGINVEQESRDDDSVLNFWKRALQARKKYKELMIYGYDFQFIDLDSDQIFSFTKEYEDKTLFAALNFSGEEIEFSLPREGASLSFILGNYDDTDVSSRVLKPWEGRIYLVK

Row | SMILES | PTP1B inhibition ratio (%) (PTP1B; [1]) | inhibition at 50 µM (α-glucosidase) | PTP1B inhibition ratio (%) (PTP1B; at a concentration of 20 μM, positive control)
1 | Oc1ccc2cc1Oc1ccc(cc1)CC/C=C\C=C\C2 [Compound 8, tedarenes A] | -3.47 ± 1.21% |  | 
2 | COc1ccc(CC/C=C\C=C\Cc2ccc(O)cc2)cc1 [Compound 6, Otteacumiene F] | -12.94 ± 2.98% |  | 
3 | Oc1ccc2cc1Oc1ccc(cc1)CC=CC=CC(O)C2 (centres unmarked) [Compound 1, Otteacumiene A] | -9.47 ± 2.28% | 38.3 ± 1.79% | 
4 | Cc1ccc(C(=O)Nc2ccc(S(=O)(=O)O)c3cc(S(=O)(=O)O)cc(S(=O)(=O)O)c23)cc1NC(=O)c1cccc(NC(=O)Nc2cccc(C(=O)Nc3cc(C(=O)Nc4ccc(S(=O)(=O)O)c5cc(S(=O)(=O)O)cc(S(=O)(=O)O)c45)ccc3C)c2)c1 [Suramin, suramin, reference compound] |  |  | 84.11 ± 0.42^d %
5 | COc1ccc(/C=C/C/C=C/CCc2ccc(OC)cc2)cc1 [Compound 7, (1E,4E)-1,7-di(4-methoxyphenyl)-1,4-heptadiene] | -26.62 ± 2.28% |  | 
6 | COC1c2ccc(O)c(c2)Oc2ccc(cc2)CCC=CCC1O (centres unmarked) [Compound 3, Otteacumiene C] | 19.07 ± 0.85% |  | 
7 | Oc1ccc(C/C=C/C=C\CCc2ccc(O)cc2)cc1 [Compound 5, Otteacumiene E] | -0.28 ± 1.89% |  | 
8 | Oc1ccc2cc1Oc1ccc(cc1)C[C@H](O)/C=C\C=C\C2 [Compound 2, Otteacumiene B] | 11.32 ± 2.03% | 43.98 ± 0.43% | 
9 | O=C1C/C=C/CCc2ccc(O)c(c2)-c2cc(ccc2O)C1 [Compound 4, Otteacumiene D] | 10.37 ± 2.17% |  | 
